In the NIST ThermoML archive (doi:10.1016/j.fluid.2011.03.031):
Numbers after ± are expanded uncertainties.

Experiment: wn = mass fraction of the nth substance listed
Settings: 101 kPa, Liquid, w1 = 0.321; for electrical conductivity: Phywe conductometer; for mass density: Vibrating tube method

Structure (SMILES): CCN(CC)CC [triethylamine] + O
- electrical conductivity (284.65 K): 0.04696 ± 0.00011 S/m
- mass density (284.65 K): 935.6 ± 0.4 kg/m3
- electrical conductivity (285.14 K): 0.04816 ± 0.0001 S/m
- mass density (285.14 K): 935.2 ± 0.4 kg/m3
- electrical conductivity (285.64 K): 0.04926 ± 0.0001 S/m
- mass density (285.64 K): 934.7 ± 0.4 kg/m3
- electrical conductivity (286.14 K): 0.05046 ± 0.0001 S/m
- mass density (286.14 K): 934.2 ± 0.4 kg/m3
- electrical conductivity (286.65 K): 0.05156 ± 0.0001 S/m
- mass density (286.65 K): 933.7 ± 0.4 kg/m3
- electrical conductivity (287.14 K): 0.05276 ± 0.0001 S/m
- mass density (287.14 K): 933.1 ± 0.4 kg/m3
- electrical conductivity (287.65 K): 0.05396 ± 0.0001 S/m
- mass density (287.65 K): 932.5 ± 0.4 kg/m3
- electrical conductivity (288.09 K): 0.05496 ± 0.0001 S/m
- mass density (288.09 K): 932 ± 0.4 kg/m3
- electrical conductivity (288.59 K): 0.05616 ± 0.0001 S/m
- mass density (288.59 K): 931.4 ± 0.4 kg/m3
- electrical conductivity (288.89 K): 0.05676 ± 0.0001 S/m
- mass density (288.89 K): 931 ± 0.4 kg/m3
- electrical conductivity (289.14 K): 0.05736 ± 0.00011 S/m
- mass density (289.14 K): 930.7 ± 0.4 kg/m3
- electrical conductivity (289.42 K): 0.05806 ± 0.0001 S/m
- mass density (289.42 K): 930.3 ± 0.4 kg/m3
- electrical conductivity (289.65 K): 0.05856 ± 0.0001 S/m
- mass density (289.65 K): 930 ± 0.4 kg/m3
- electrical conductivity (289.91 K): 0.05916 ± 0.0001 S/m
- mass density (289.91 K): 929.6 ± 0.4 kg/m3
- electrical conductivity (290.15 K): 0.05976 ± 0.00011 S/m
- mass density (290.15 K): 929.3 ± 0.4 kg/m3
- electrical conductivity (290.33 K): 0.06026 ± 0.00012 S/m
- mass density (290.33 K): 929 ± 0.4 kg/m3
- electrical conductivity (290.44 K): 0.06056 ± 0.0001 S/m
- mass density (290.44 K): 928.9 ± 0.4 kg/m3
- electrical conductivity (290.55 K): 0.06076 ± 0.0001 S/m
- mass density (290.55 K): 928.7 ± 0.4 kg/m3
- electrical conductivity (290.65 K): 0.06106 ± 0.00013 S/m
- mass density (290.65 K): 928.6 ± 0.4 kg/m3
- electrical conductivity (290.75 K): 0.06136 ± 0.00013 S/m
- mass density (290.75 K): 928.4 ± 0.4 kg/m3
- electrical conductivity (290.84 K): 0.06166 ± 0.00013 S/m
- mass density (290.84 K): 928.3 ± 0.4 kg/m3
- electrical conductivity (290.94 K): 0.06196 ± 0.00012 S/m
- mass density (290.94 K): 928.2 ± 0.4 kg/m3
- electrical conductivity (291.05 K): 0.06226 ± 0.00012 S/m
- mass density (291.05 K): 928 ± 0.4 kg/m3
- electrical conductivity (291.15 K): 0.06256 ± 0.00014 S/m
- mass density (291.15 K): 927.8 ± 0.4 kg/m3
- electrical conductivity (291.19 K): 0.06276 ± 0.00013 S/m
- mass density (291.19 K): 927.8 ± 0.4 kg/m3
- electrical conductivity (291.24 K): 0.06286 ± 0.00013 S/m
- mass density (291.24 K): 927.7 ± 0.4 kg/m3
- electrical conductivity (291.29 K): 0.06306 ± 0.00017 S/m
- mass density (291.29 K): 927.6 ± 0.4 kg/m3
- electrical conductivity (291.34 K): 0.06326 ± 0.00015 S/m
- mass density (291.34 K): 927.5 ± 0.4 kg/m3
- electrical conductivity (291.39 K): 0.06346 ± 0.00015 S/m
- mass density (291.39 K): 927.5 ± 0.4 kg/m3
